“Also recorded” adds a separate entry of the source. Read-outs that look alike come from different tables or passages of the source.
How the values were obtained:
[1] = system: 59M cells; experiment: Tumour cell-induced platelet aggregation (TCIPA), static conditions, 59M; assay type: cell-based, human; conditions: for inhibition of TCIPA induced by 59M: static, WP, 300 and 500 μM, 59M 1×10^3/ml
Description: ISAS meanwhile is hydrolysed to aspirin and salicylic acid. […] The structure of platelet-tumor cell aggregates was studied using phase-contrast microscopy (Alonso-Escolano et al., 2004; Jurasz et al., 2001). […] Aliquots of each sample were then taken for phase-contrast microscopy examination using an Olympus CKX41 microscope (Olympus America Inc., […].). Photomicrographs were captured using a digital camera and MicroFire (Olympus America Inc.) software (Alonso-Escolano et al., 2004; Jurasz et al., 2001).

[2] = system: CaCo2 cells; experiment: Tumour cell-induced platelet aggregation (TCIPA), static conditions, Caco-2
Method: Three human tumor cell lines, 59M ovarian adenocarcinoma, Caco-2 colon adenocarcinoma and HT1080 fibrocarcinoma cells, were obtained from the European Cell Culture Collection. Cell lines were cultured as monolayers in 75 ml culture flasks at 37° C. in a humidified atmosphere with 5% CO2. 59M cells and HT1080 were cultured in Dulbecco's […] (DMEM) supplemented with 10% fetal bovine serum (FBS) and gentamycin (0.05 mg/ml), penicillin (0.06 mg/ml), and streptomycin (0.01 mg/ml). Caco-2 cell line was cultured in Minimum Essential Medium (MEM) supplemented with 20% FBS and the same antibiotics as above. The cells were supplied with fresh medium and subcultured three times each week.
Washed platelet suspensions (2.5×10^11 platelets 1^−1) were prepared from blood an mixed with the anticoagulant sodium citrate (0.315% final concentration).
The interactions between platelets and tumor cells were measured by light aggregometry (Alonso-Escolano et al., 2004; Jurasz et al., 2001b; Radomski et al., 1991). […] TCIPA was initiated by the addition of cancer cells, and monitored by Aggro-Link software for at least 30 min. […]
To study whether or not aspirin prodrugs had any direct effect on tumour cells, nictoinate was preincubated with different cell lines and added to the platelet suspension. TCIPA was monitored for at least 30 min.

[3] = system: TxB2; experiment: TxB2 suppression after single oral gavage dose; assay type: in vivo, cynomolgus monkey; conditions: Phase 2A, single oral gavage, ST0702 9.6 mg/kg, aspirin 4.2 mg/kg, 1 and 24 hours post dosing
[4] = system: 59M cells; experiment: Flow-mediated TCIPA using an ultrasound standing wave trap; assay type: cell-based, human; conditions: 500 μM, 59M cell cluster
Description: The ultrasound trap had three essential features: a transducer (Ferroperm, Kvistgard, Denmark) in a housing of radial symmetry, an aqueous phase and a reflector that provided optical access from above. The trap was driven with a function generator (Hewlett Packard 33120A, UK). Microscopic observation occurred with a fast, high-resolution XM10 camera (Soft Imaging System, SIS, GmbH) mounted on an Olympus BX51M reflection epi-fluorescence microscope. Images were captured by a standard PC equipped with the Cell-D image acquisition software (Soft Imaging System, SIS, GmbH).
The experimental procedure was as follows: 59M cells were introduced into the trap, the acoustic field (2.13 MHz, 0.85 MPa) was initiated and cell clusters were allowed to form. Clusters remained levitated in suspension for 10 min. Washed platelets (2.5×10^8/ml) were introduced into the trap at a flow rate of 3 μl/min. Perfusion of washed platelets around the cluster proceeded following initial adhesion of platelets to the periphery of the cluster.
To study the effect of aspirin and aspirin prodrugs in TCIPA, washed platelets were pre-incubated for 10 min at room temperature with the inhibitors: aspirin, nicotinate, ISAS, ISMNA, ortho and meta (all at a concentration of 500 μM), prior to their introduction into the ultrasound trap. […] The cell cluster-platelet aggregate remained under microscopic observation for further 10 min (the upper time limit established in the current study) under continuous flow conditions. Further experiments were performed with ST0702 salicylate (500 μM).

[5] = system: platelet rich plasma (PRP); experiment: Collagen-induced platelet aggregation in platelet rich plasma (light aggregometry); assay type: cell-based; conditions: Homo sapiens, collagen (5 µg/mL), values without †, read-out: IC50 (PRP, 95% CI)
[6] = GI tolerability testing: gastric ulcerogenic effect in rats; assay type: in vivo; conditions: rat, aspirin 30 mg/Kg daily or molar equivalent doses, oral gavage, 3 days
Method: In this study, rats are fed Aspirin 30 mg/Kg daily or molar equivalent doses of ISAS, ISANA (“Nicotinate”), ISANO “Meta” nitrate or ISAMNA in oral gavage daily for 3 days (n=3 per group). At the end of the dosing period, all animals were sacrificed, stomachs removed and were immersed in 2% formalin for at least 10 min to fix the gastric tissue wall, and will opened along the greater curvature for scoring for irritation or hemorrhagic lesions or ulcers developed in the corpus mucosa under a dissecting microscope on a 5-point scale. The percentage of stomach surface area showing ulcers was recorded for each animal and expressed as a percentage.

[7] = system: washed platelet samples; experiment: Collagen-induced platelet aggregation in the TCIPA studies (washed platelets); assay type: cell-based, human; conditions: Homo sapiens, Platelet; aspirin 300 μM, n=4
[8] = system: platelet rich plasma (PRP); conditions: values marked † From Reference 7, read-out: IC50 (PRP, 95% CI); cited from earlier work
[9] = system: platelet rich plasma (PRP); experiment: U46619-induced platelet aggregation in PRP; assay type: cell-based, human
Method: Platelet aggregation was measured by light aggregometry. […] Aggregation was initiated by the addition of agonists, and monitored by Aggro-Link software for at least 6 min.

Compound: CC(=O)Oc1ccccc1C(=O)O[C@H]1CO[C@H]2[C@@H]1OC[C@H]2OC(=O)c1cccnc1 [ST0702, isosorbide-2-aspirinate-5-nicotinate]
- effect on TCIPA when tumour cells were preincubated with compound ([1]; 59M cells preincubated): no effect on TCIPA
- inhibition of TCIPA induced by 59M [1]: consistently inhibited TCIPA
- effect on TCIPA when tumour cells were preincubated with compound ([2]; Caco2 cells preincubated): no effect on TCIPA
- inhibition of TCIPA induced by Caco-2 ([2]; static, WP, 300 and 500 μM, CaCo2 1.5×10^3/ml): consistently inhibited TCIPA
- TxB2 suppression (TxB2 levels as percentage of baseline), in words [3]: effective
- inhibition of TCIPA under flow conditions (platelet-tumour cell disruption) [4]: significantly arrested TCIPA; also recorded: effectively inhibit

Compound: CC(=O)Oc1ccccc1C(=O)O [Aspirin]
- IC50 [5]: 90 µM
- gastric ulcerogenic effect [6]: significant gastric ulcerogenic effect
- inhibition at 300 µM [7]: 56 ± 7%
- inhibition of TCIPA induced by 59M [1]: did not exert any significant effect
- inhibition of TCIPA induced by 59M ([1]; listed as aspirin): did not exert a significant effect
- IC50 [8]: 92 µM
- inhibitory effect on platelet aggregation induced by U46619 [9]: Neither aspirin nor the aspirin prodrugs had any inhibitory effect
- TxB2 suppression (TxB2 levels as percentage of baseline), in words [3]: effective
